Test results: patent publication US10806726B2, “Methods of using indazole-3-carb oxamides and their use as Wnt/B-catenin signaling pathway inhibitors” (Samumed, LLC, priority 2016, dated 2020)

Tests used:
[1] = test system: Wnt-responsive promoter driving firefly luciferase in SW480 cells; test: Wnt reporter (SP5 promoter-luciferase) screening assay in SW480 cells; type: cell-based; conditions: Homo sapiens, 24-40 h, top concentration ten micromolar
Text: Another screening assay for Wnt activity is described as follows. Reporter cell lines can be generated by stably transducing cells of cancer cell lines (e.g., colon cancer) with a lentiviral construct that include a Wnt-responsive promoter driving expression of the firefly luciferase gene.
Lentiviral constructs can be made in which the SP5 promoter, a promoter having eight TCF/LEF binding sites derived from the SP5 promoter, is linked upstream of the firefly luciferase gene. The lentiviral constructs can also include a hygromycin resistance gene as a selectable marker. The SP5 promoter construct can be used to transduce SW480 cells, a colon cancer cell line having a mutated APC gene that generates a truncated APC protein, leading to de-regulated accumulation of β-catenin.
Cultured SW480 cells bearing a reporter construct can be distributed at approximately 10,000 cells per well into 96 well or 384 well plates. Compounds from a small molecule compound library can then be added to the wells in half-log dilutions using a ten micromolar top concentration. A series of control wells for each cell type receive only buffer and compound solvent. Twenty-four to forty hours after the addition of compound, reporter activity for luciferase can be assayed, for example, by addition of the BrightGlo luminescence reagent (Promega) and the Victor3 plate reader (Perkin Elmer). Readings can be normalized to DMSO only treated cells, and normalized activities can then be used in the EC50 calculations.

[2] = test system: primary human mesenchymal stem cells (hMSCs); test: Tenocyte differentiation screening in hMSCs (SCXA-positive cells, 4 days); type: cell-based; conditions: 96 h, fold change over DMSO
Text: Representative compounds were screened using primary human mesenchymal stem cells (hMSCs) to determine their ability to induce tenocyte differentiation (process by which tendon is developed).
Primary human mesenchymal stem cells (hMSCs) were purchased from Lonza (Walkersville, Md.) and expanded in Mesenchymal Stem Cell Growth Media (Lonza). Cells between passage 3 and 6 were used for the experiments.
Cells were fixed using 4% formaldehyde (Electron Microscopy Sciences), and stained with anti-Sclerasis (anti-SCXA) antibodies (Abgent, San Diego, Calif.) [Webb S., et. al., Retinoic acid receptor signaling preserves tendon stem cell characteristics and prevents spontaneous differentiation in vitro, Stem Cell Research & Therapy 2016, 7:45] overnight at 4° C. […] Number of cells positive for SCXA in each well was quantified using the Celllnsight CX5. Data was normalized to the average of 12 DMSO treated wells on the same plate using Dotmatics Studies module. The normalized averages (fold change over DMSO) of 3 replicate wells for each compound concentration were calculated. Due to solubility limitations of some of the compounds, values for higher doses were manually corrected and curve fitting and EC50 determinations were performed using Dotmatics Studies.
EC50 for each compound is reported.

| SMILES | EC50 [1] [nM] | EC50 [2] [µM] |
| --- | --- | --- |
| O=C(Nc1cccnc1)c1n[nH]c2ccc(-c3cncc(NC(=O)N4CCOCC4)c3)cc12 [compound 32, N-(5-(3-(Pyridin-3-ylcarbamoyl)-1H-indazol-5-yl)pyridin-3-yl) morpholine-4-carboxamide] | 1250 | > 100 |
| O=C(Nc1cnccc1NC(=O)C1CC1)c1n[nH]c2ccc(-c3cccnc3)cc12 [compound 58, N-(4-(Cyclopropanecarboxamido)pyridin-3-yl)-5-(pyridin-3-yl)-1H-indazole-3-carboxamide] | 71 | > 100 |
| CN1CCN(Cc2ccc(NC(=O)c3n[nH]c4ccc(-c5cccnc5)cc34)cn2)CC1 [compound 15, N-(6-((4-Methylpiperazin-1-yl)methyl)pyridin-3-yl)-5-(pyridin-3-yl)-1H-indazole-3-carboxamide] | 37 | 4.8 |
| O=C(Nc1ccc(Oc2ccccc2F)nc1)c1n[nH]c2ccc(-c3cccnc3)cc12 [compound 18, N-(6-(2-fluorophenoxy)pyridin-3-yl)-5-(pyridin-3-yl)-1H-indazole-3-carboxamide] | 122 | 5.38 |
| O=C(NC1CCCCC1)c1n[nH]c2ccc(-c3cncc(CN4CCCCC4)c3)cc12 [compound 77, N-Cyclohexyl-5-(5-(piperidin-1-ylmethyl)pyridin-3-yl)-1H-indazole-3-carboxamide] | 2650 | 6.08 |
| O=C(Nc1ccc(C(F)(F)F)nc1)c1n[nH]c2ccc(-c3cncc(F)c3)cc12 [compound 2, 5-(5-fluoropyridin-3-yl)-N-(6-(trifluoromethyl)pyridin-3-yl)-1H-indazole-3-carboxamide] | 5000 | > 100 |
| CN1CCN(c2ccc(NC(=O)c3n[nH]c4ccc(-c5cncc(NC(=O)C6CC6)c5)cc34)cn2)CC1 [compound 38, 5-(5-(Cyclopropanecarboxamido)pyridin-3-yl)-N-(6-(4-methylpiperazin-1-yl)pyridin-3-yl)-1H-indazole-3-carboxamide] | 120 | 2.84 |
| O=C(Nc1cccnc1)c1n[nH]c2ccc(-c3cccnc3)cc12 [compound 4, N,5-di(pyridin-3-yl)-1H-indazole-3-carboxamide] | 160 | 4.55 |
| O=C(Nc1ccc(N2CCCC2)nc1)c1n[nH]c2ccc(-c3cccnc3)cc12 [compound 53, 5-(Pyridin-3-yl)-N-(6-(pyrrolidin-1-yl)pyridin-3-yl)-1H-indazole-3-carboxamide] | 63 | > 100 |
| CN(C)Cc1cncc(NC(=O)c2n[nH]c3ccc(-c4cccnc4)cc23)c1 [compound 7, N-(5-((Dimethylamino)methyl)pyridin-3-yl)-5-(pyridin-3-yl)-1H-indazole-3-carboxamide] | 110 | 6.94 |
| CCOc1ccc(NC(=O)c2n[nH]c3ccc(-c4cncc(CN5CCCC5)c4)cc23)cn1 [compound 44, N-(6-Ethoxypyridin-3-yl)-5-(5-(pyrrolidin-1-ylmethyl)pyridin-3-yl)-1H-indazole-3-carboxamide] | 158 | 25.1 |
| CN(C)Cc1cncc(-c2ccc3[nH]nc(C(=O)Nc4ccc(Oc5ccccc5F)nc4)c3c2)c1 [compound 36, 5-(5-((Dimethylamino)methyl)pyridin-3-yl)-N-(6-(2-fluorophenoxy)pyridin-3-yl)-1H-indazole-3-carboxamide] | 275 | > 100 |
| O=C(Nc1cccnc1)c1n[nH]c2ccc(-c3cncc(CN4CCCCC4)c3)cc12 [compound 46, 5-(5-(Piperidin-1-ylmethyl)pyridin-3-yl)-N-(pyridin-3-yl)-1H-indazole-3-carboxamide] | 15 | 5.06 |
| CN1CCN(Cc2cc(F)cc(-c3ccc4[nH]nc(C(=O)Nc5cnccc5C(F)(F)F)c4c3)c2)CC1 [compound 60, 5-(3-Fluoro-5-((4-methylpiperazin-1-yl)methyl)phenyl)-N-(4-(trifluoromethyl)pyridin-3-yl)-1H-indazole-3-carboxamide] | ≥ 10000 | > 100 |
| O=C(Nc1cccnc1)c1n[nH]c2ccc(-c3cncc(CN4CCOCC4)c3)cc12 [compound 64, 5-(5-(Morpholinomethyl)pyridin-3-yl)-N-(pyridin-3-yl)-1H-indazole-3-carboxamide] | 6 | 7.66 |
| O=C(Nc1cccnc1)c1n[nH]c2ccc(-c3cncc(Cc4ccccc4)c3)cc12 [compound 55, 5-(5-Benzylpyridin-3-yl)-N-(pyridin-3-yl)-1H-indazole-3-carboxamide] | 44 | > 100 |
| O=C(Nc1cccnc1)c1n[nH]c2ccc(-c3cncc(F)c3)cc12 [compound 13, 5-(5-fluoropyridin-3-yl)-N-(pyridin-3-yl)-1H-indazole-3-carboxamide] | 1250 | > 100 |
| O=C(Nc1cccnc1)c1n[nH]c2ccc(-c3ccc(N4CCCC4)nc3)cc12 [compound 51, N-(Pyridin-3-yl)-5-(6-(pyrrolidin-1-yl)pyridin-3-yl)-1H-indazole-3-carboxamide] | 26 | > 100 |
| O=C(NC1CCCCC1)c1cncc(-c2ccc3[nH]nc(C(=O)Nc4cccnc4)c3c2)c1 [compound 59, 5-(5-(Cyclohexylcarbamoyl)pyridin-3-yl)-N-(pyridin-3-yl)-1H-indazole-3-carboxamide] | 3100 | 14.6 |
| O=C(Nc1cccnc1)c1n[nH]c2ccc(-c3cncc(Oc4ccccc4)c3)cc12 [compound 56, 5-(5-Phenoxypyridin-3-yl)-N-(pyridin-3-yl)-1H-indazole-3-carboxamide] | 160 | 0.625 |

Next, values leading:

| EC50 [1] [nM] | EC50 [2] [µM] | SMILES |
| --- | --- | --- |
| 2440 | 1.58 | CN1CCC(NC(=O)c2n[nH]c3ccc(-c4cncc(CN5CCCCC5)c4)cc23)CC1 [compound 87, N-(1-Methylpiperidin-4-yl)-5-(5-(piperidin-1-ylmethyl)pyridin-3-yl)-1H-indazole-3-carboxamide] |
| 143 to 188 | > 100 | O=C(Nc1ccccc1)c1n[nH]c2ccc(-c3cncc(CN4CCCCC4)c3)cc12 [compound 82, N-Phenyl-5-(5-(piperidin-1-ylmethyl)pyridin-3-yl)-1H-indazole-3-carboxamide] |
| 67 | > 100 | CN1CCN(Cc2cncc(NC(=O)c3n[nH]c4ccc(-c5cncc(CN6CCCCC6)c5)cc34)c2)CC1 [compound 124, N-(5-((4-Methylpiperazin-1-yl)methyl)pyridin-3-yl)-5-(5-(piperidin-1-ylmethyl)pyridin-3-yl)-1H-indazole-3-carboxamide] |
| 33 | 5.54 | CN(C)Cc1cncc(NC(=O)c2n[nH]c3ccc(-c4cncc(CN5CCCC5)c4)cc23)c1 [compound 106, N-(5-((Dimethylamino)methyl)pyridin-3-yl)-5-(5-(pyrrolidin-1-ylmethyl)pyridin-3-yl)-1H-indazole-3-carboxamide] |
| 85 | > 100 | O=C(Nc1cccnc1)c1n[nH]c2ccc(-c3cncc(N4CCCC4)c3)cc12 [compound 189, N-(Pyridin-3-yl)-5-(5-(pyrrolidin-1-yl)pyridin-3-yl)-1H-indazole-3-carboxamide] |
| 822 to 898 | > 100 | C[C@@H]1CCC[C@H](C)N1Cc1cncc(-c2ccc3[nH]nc(C(=O)Nc4cccnc4)c3c2)c1 [compound 84, 5-(5-(((2R,6 S)-2,6-Dimethylpiperidin-1-yl)methyl)pyridin-3-yl)-N-(pyridin-3-yl)-1H-indazole-3-carboxamide] |
| 66 | 5.27 | CN(C)Cc1cncc(NC(=O)c2n[nH]c3ccc(-c4cncc(CN5CCCCC5)c4)cc23)c1 [compound 86, N-(5-((Dimethylamino)methyl)pyridin-3-yl)-5-(5-(piperidin-1-ylmethyl)pyridin-3-yl)-1H-indazole-3-carboxamide] |
| 9 | 1.21 | O=C(Nc1cccnc1)c1n[nH]c2ccc(-c3cncc(CN4CCC(F)(F)C4)c3)cc12 [compound 188, 5-(5-((3,3-Difluoropyrrolidin-1-yl)methyl)pyridin-3-yl)-N-(pyridin-3-yl)-1H-indazole-3-carboxamide] |
| 22 | 5.54 | O=C(Nc1ccc(N2CCCCC2)nc1)c1n[nH]c2ccc(-c3cncc(CN4CCCCC4)c3)cc12 [compound 126, N-(6-(Piperidin-1-yl)pyridin-3-yl)-5-(5-(piperidin-1-ylmethyl)pyridin-3-yl)-1H-indazole-3-carboxamide] |
